# Biological target: T1, human recombinant COX-2 (Homo sapiens, UniProt P35354)
# T1 construct: purchased Cayman
# T1 sequence (P35354 18-604): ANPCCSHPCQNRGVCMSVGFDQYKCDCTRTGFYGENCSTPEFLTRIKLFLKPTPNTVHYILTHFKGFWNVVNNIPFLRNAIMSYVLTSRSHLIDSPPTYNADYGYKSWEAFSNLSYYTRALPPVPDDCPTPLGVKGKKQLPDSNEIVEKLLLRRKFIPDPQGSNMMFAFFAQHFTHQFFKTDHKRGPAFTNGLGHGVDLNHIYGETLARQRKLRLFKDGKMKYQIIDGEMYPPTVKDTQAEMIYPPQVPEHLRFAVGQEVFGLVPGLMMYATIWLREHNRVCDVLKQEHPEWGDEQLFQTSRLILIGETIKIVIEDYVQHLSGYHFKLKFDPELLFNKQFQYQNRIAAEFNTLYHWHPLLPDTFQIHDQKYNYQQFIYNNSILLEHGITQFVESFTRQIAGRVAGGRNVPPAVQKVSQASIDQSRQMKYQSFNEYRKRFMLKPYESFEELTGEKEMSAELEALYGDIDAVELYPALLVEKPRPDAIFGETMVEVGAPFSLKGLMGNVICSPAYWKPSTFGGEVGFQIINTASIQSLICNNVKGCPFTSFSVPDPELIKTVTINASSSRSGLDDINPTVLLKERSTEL
# Test: Colorimetric COX Inhibitor Screening Assay (Cayman), COX-2 inhibitory effect
# Type: biochemical
# Method: Cayman’s Colorimetric COX Inhibitor Screening Assay provides a convenient method for human recombinant COX-2 to screen isozyme-specific inhibitors. The assay measures the peroxidase component of COXs. The peroxidase activity is assayed colorimetrically by monitoring the appearance of oxidized N′,N,N,N′-tetramethyl-p-phenylenediamine (TMPD) at 590 nm. The COX-2 assay consisted of a 200 µL reaction mixture containing 150 µL assay buffer, 10 µL Heme, 10 µL COX-2, 20 µL Colorimetric Substrate, and 10 µL test solution (1, 5, 10, 20, 80, 100 µmol·L^−1). The reactions were initiated by quickly adding 10 µL Arachidonic Acid, then incubating for 2 min at room temperature.
row,SMILES,IC50 [µM]
1,"CC(C=CC(O)C(C)(C)O)C1CCC2(C)C3CC=C4C(CCC(O)C4(C)C)C3(C)CCC12C (stereo not drawn) [Compound 1, cucurbita-5, 22-diene-3β, 24S, 25-triol]",> 100
2,"C[C@H](CC[C@H](O)C(C)(C)O)[C@H]1CC[C@@]2(C)[C@@H]3CC=C4[C@@H](CC[C@H](O)C4(C)C)[C@]3(C)CC[C@]12C [Compound 2, cucurbita-5-ene-3β,24S,25-triol]",18.9 ± 1.65
3,"C[C@H](C/C=C/C(C)(C)O)[C@H]1CC[C@@]2(C)[C@@H]3C[C@H]4O[C@@]45[C@@H](CC[C@H](O)C5(C)C)[C@]3(C)CC[C@]12C [Compound 3, cucurbita-5β,6β-epoxy-23-ene-3β, 25-diol]",> 100
4,"C[C@H](CCCO)[C@H]1CC[C@@]2(C)[C@@H]3CC=C4[C@@H](CC[C@H](O)C4(C)C)[C@]3(C)CC[C@]12C [Compound 4, 25,26,27-trinorcucurbita-5-ene-3β,24-diol]",3.98 ± 0.32
5,"C[C@H](CCC(=O)O)[C@H]1CC[C@@]2(C)[C@@H]3CC=C4[C@@H](CC[C@H](O)C4(C)C)[C@]3(C)CC[C@]12C [Compound 5, 25,26,27-trinorcucurbita-5-ene-3β-ol-24-acid]",19.5 ± 1.87
6,"C[C@H](CCO)[C@H]1CC[C@@]2(C)[C@@H]3CC=C4[C@@H](CC[C@H](O)C4(C)C)[C@]3(C)CC[C@]12C [Compound 6, 24,25,26,27-tetranorcucurbita-5-ene-3β,23-diol]",31 ± 2.64
7,"CC(CC=CC(C)(C)O)C1CCC2(C)C3CCC4(C)C(C)C(=O)CCC4C3(C)CCC12C (stereo not drawn) [Compound 7, 18R-D:A-friedoeuph-20-ene-22-ol-3-one]",> 100
8,C=C(C)[C@@H](O)CC[C@@H](C)[C@@H]1CC[C@]2(C)[C@H]3CC[C@@]4(C)[C@@H](CCC(=O)[C@@H]4C)[C@]3(C)CC[C@@]12C [Compound 8],> 100
9,"C[C@H](C/C=C/C(C)(C)O)[C@H]1CC[C@@]2(C)[C@@H]3CC=C4[C@@H](CC[C@H](O)C4(C)C)[C@]3(C)CC[C@]12C [Compound 9, cucurbita-5,23-diene-3β,25-diol]",> 100
